{"source": "patent US20250176599A1", "about": "“FLAVOR COMPOSITION AND FOOD AND BEVERAGE” (TAKASAGO INTERNATIONAL CORPORATION, priority 2021, published 2025)", "key": {"[1]": {"assay": "Sensory evaluation of aqueous solution I containing (E)-2-nonenal 1 ppb: off-flavor intensity and masking component intensity", "conditions": "(E)-2-nonenal 1 ppb, average score 0-4", "outline": "(§1)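 Scores run 0–4 for two attributes: off-flavor intensity, judged against the unmasked spiked solution (4) and degradant-free water (0), and nootkatone's own perceptibility, judged absolutely. A panel of eight experienced tasters evaluated aqueous solutions of the degradation component containing added nootkatone.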"}, "[2]": {"assay": "Sensory evaluation of aqueous solution VI containing 1,5-octadien-3-ol 10 ppb: off-flavor intensity and masking component intensity", "conditions": "aqueous solution VI, 1,5-octadien-3-ol 10 ppb, average score 0-4", "outline": "as §1"}, "[3]": {"assay": "Sensory evaluation of aqueous solution IV containing 1,5-octadien-3-one 100 ppt: off-flavor intensity and masking component intensity", "conditions": "aqueous solution IV, 1,5-octadien-3-one 100 ppt, average score 0-4", "outline": "as §1"}, "[4]": {"assay": "Sensory evaluation of aqueous solution III containing 1-octen-3-one 1 ppb: off-flavor intensity and masking component intensity", "conditions": "1-octen-3-one 1 ppb, average score 0-4", "outline": "as §1"}, "[5]": {"assay": "Overall conclusion of the sensory evaluation across aqueous solutions I to VI", "outline": "as §1"}, "[6]": {"assay": "Sensory evaluation of aqueous solution V containing 1-octen-3-ol 10 ppb: off-flavor intensity and masking component intensity", "conditions": "1-octen-3-ol 10 ppb, average score 0-4", "outline": "as §1"}, "[7]": {"assay": "Sensory evaluation of aqueous solution II containing (E)-2-octenal 10 ppb: off-flavor intensity and masking component intensity", "conditions": "(E)-2-octenal 10 ppb, average score 0-4", "outline": "as §1"}}}
{"smiles": "C=C(C)[C@@H]1CCC2=CC(=O)C[C@@H](C)[C@]2(C)C1", "note": "[Nootkatone, nootkatone]", "values": [{"measurement": "Off-Flavor Intensity", "setting": "[1]; 1 ppb added", "result": 2.8, "unit": "points"}, {"measurement": "Off-Flavor Intensity", "setting": "[1]; 1 ppm added", "result": 1.8, "unit": "points"}, {"measurement": "Off-Flavor Intensity", "setting": "[1]; 5 ppm added", "result": 1.1, "unit": "points"}, {"measurement": "Off-Flavor Intensity", "setting": "[1]; 10 ppb added", "result": 2.4, "unit": "points"}, {"measurement": "Off-Flavor Intensity", "setting": "[1]; 10 ppm added", "result": 0.8, "unit": "points"}, {"measurement": "Off-Flavor Intensity", "setting": "[1]; 10 ppt added", "result": 3.4, "unit": "points"}, {"measurement": "Off-Flavor Intensity", "setting": "[1]; 100 ppb added", "result": 2.1, "unit": "points"}, {"measurement": "Off-Flavor Intensity", "setting": "[1]; 100 ppt added", "result": 3.3, "unit": "points"}, {"measurement": "Off-Flavor Intensity", "setting": "[2]; 1 ppb added", "result": 2.5, "unit": "points"}, {"measurement": "Off-Flavor Intensity", "setting": "[2]; 1 ppm added", "result": 1.1, "unit": "points"}, {"measurement": "Off-Flavor Intensity", "setting": "[2]; 5 ppm added", "result": 0.6, "unit": "points"}, {"measurement": "Off-Flavor Intensity", "setting": "[2]; 10 ppb added", "result": 2.1, "unit": "points"}, {"measurement": "Off-Flavor Intensity", "setting": "[2]; 10 ppm added", "result": 0.6, "unit": "points"}, {"measurement": "Off-Flavor Intensity", "setting": "[2]; 10 ppt added", "result": 3.1, "unit": "points"}, {"measurement": "Off-Flavor Intensity", "setting": "[2]; 100 ppb added", "result": 1.5, "unit": "points"}, {"measurement": "Off-Flavor Intensity", "setting": "[2]; 100 ppt added", "result": 3.0, "unit": "points"}, {"measurement": "Off-Flavor Intensity", "setting": "[3]; 1 ppb added", "result": 3.1, "unit": "points"}, {"measurement": "Off-Flavor Intensity", "setting": "[3]; 1 ppm added", "result": 2.0, "unit": "points"}, {"measurement": "Off-Flavor Intensity", "setting": "[3]; 5 ppm added", "result": 1.3, "unit": "points"}, {"measurement": "Off-Flavor Intensity", "setting": "[3]; 10 ppb added", "result": 2.9, "unit": "points"}, {"measurement": "Off-Flavor Intensity", "setting": "[3]; 10 ppm added", "result": 0.9, "unit": "points"}, {"measurement": "Off-Flavor Intensity", "setting": "[3]; 10 ppt added", "result": 3.6, "unit": "points"}, {"measurement": "Off-Flavor Intensity", "setting": "[3]; 100 ppb added", "result": 2.4, "unit": "points"}, {"measurement": "Off-Flavor Intensity", "setting": "[3]; 100 ppt added", "result": 3.5, "unit": "points"}, {"measurement": "Off-Flavor Intensity", "setting": "[4]; 1 ppb added", "result": 2.6, "unit": "points"}, {"measurement": "Off-Flavor Intensity", "setting": "[4]; 1 ppm added", "result": 1.6, "unit": "points"}, {"measurement": "Off-Flavor Intensity", "setting": "[4]; 5 ppm added", "result": 1.1, "unit": "points"}, {"measurement": "Off-Flavor Intensity", "setting": "[4]; 10 ppb added", "result": 2.3, "unit": "points"}, {"measurement": "Off-Flavor Intensity", "setting": "[4]; 10 ppm added", "result": 0.9, "unit": "points"}, {"measurement": "Off-Flavor Intensity", "setting": "[4]; 10 ppt added", "result": 3.4, "unit": "points"}, {"measurement": "Off-Flavor Intensity", "setting": "[4]; 100 ppb added", "result": 2.1, "unit": "points"}, {"measurement": "Off-Flavor Intensity", "setting": "[4]; 100 ppt added", "result": 3.1, "unit": "points"}, {"measurement": "concentration that masks the off-flavor and does not affect the flavor of the food and/or beverage itself, lower limit", "setting": "[5]", "result": "≥ 100", "unit": "ppt"}, {"measurement": "concentration that masks the off-flavor and does not affect the flavor of the food and/or beverage itself, upper limit", "setting": "[5]", "result": "≤ 1", "unit": "ppm"}, {"measurement": "Off-Flavor Intensity", "setting": "[6]; 1 ppb added", "result": 2.5, "unit": "points"}, {"measurement": "Off-Flavor Intensity", "setting": "[6]; 1 ppm added", "result": 1.5, "unit": "points"}, {"measurement": "Off-Flavor Intensity", "setting": "[6]; 5 ppm added", "result": 0.9, "unit": "points"}, {"measurement": "Off-Flavor Intensity", "setting": "[6]; 10 ppb added", "result": 2.5, "unit": "points"}, {"measurement": "Off-Flavor Intensity", "setting": "[6]; 10 ppm added", "result": 0.5, "unit": "points"}, {"measurement": "Off-Flavor Intensity", "setting": "[6]; 10 ppt added", "result": 3.4, "unit": "points"}, {"measurement": "Off-Flavor Intensity", "setting": "[6]; 100 ppb added", "result": 1.8, "unit": "points"}, {"measurement": "Off-Flavor Intensity", "setting": "[6]; 100 ppt added", "result": 2.9, "unit": "points"}, {"measurement": "Off-Flavor Intensity", "setting": "[7]; 1 ppb added", "result": 2.6, "unit": "points"}, {"measurement": "Off-Flavor Intensity", "setting": "[7]; 1 ppm added", "result": 1.5, "unit": "points"}, {"measurement": "Off-Flavor Intensity", "setting": "[7]; 5 ppm added", "result": 0.6, "unit": "points"}, {"measurement": "Off-Flavor Intensity", "setting": "[7]; 10 ppb added", "result": 2.5, "unit": "points"}, {"measurement": "Off-Flavor Intensity", "setting": "[7]; 10 ppm added", "result": 0.4, "unit": "points"}, {"measurement": "Off-Flavor Intensity", "setting": "[7]; 10 ppt added", "result": 3.5, "unit": "points"}, {"measurement": "Off-Flavor Intensity", "setting": "[7]; 100 ppb added", "result": 1.9, "unit": "points"}, {"measurement": "Off-Flavor Intensity", "setting": "[7]; 100 ppt added", "result": 3.1, "unit": "points"}]}
